Values of other authors, collected in US8829054B1, “Ready-to-use co-solvents pharmaceutical composition in modified flexible plastic container” (Welgrace Research Group, priority 2013, dated 2014).

Details: published literature, Rosenberg et al. 1988

COC(=O)CCc1ccc(OCC(O)CNC(C)C)cc1.Cl (stereo not shown) [Esmolol, methyl3-[4-[2-hydroxy-3-(isopropylamino)propoxy]phenyl]propionate hydrochloride]
activation energies for Esmolol decompositions: 19 to 21.5 kcal/mol
